Converted amounts (≈) assume the structure as drawn. Like-named read-outs stand apart in the source and are kept apart here. Bridge positions count the residues as written; N and C are the ends. Square brackets hold non-standard residues; d marks the D form. Peptide text beside a SMILES is read from it. * marks the point of attachment. Ileψ(thiazoline)Cys = CC[C@H](C)[C@H](N)C1=N[C@H](C(=O)*)CS1; dOrn = NCCC[C@@H](N)C(=O)O
Experiments:
Assay in all cases: microbe, parasite or virus in culture
Assay type in all cases: cell-based
[1] = system: P. aeruginosa PaΔ3-LAC-EcPore (efflux-deficient, hyperporinated); conditions: for MIC: PaΔ3-LAC-EcPore, at least three independent measurements
[2] = system: B. thailandensis Bt-RHA (wild type, empty cassette)
[3] = system: B. thailandensis BtΔ2-RHA-BtPore (efflux-deficient, hyperporinated)
[4] = system: P. aeruginosa PAO1-LAC (wild type, empty cassette); conditions: at least three independent measurements
[5] = system: P. aeruginosa PaΔ3-LAC (efflux-deficient); conditions: at least three independent measurements
[6] = system: B. thailandensis BtΔ2-RHA (efflux-deficient)
[7] = system: B. thailandensis Bt-RHA-BtPore (hyperporinated)
[8] = system: B. cepacia Bc-RHA-BtPore (hyperporinated); conditions: for MIC: Bc-RHA-BtPore; for Fold decrease of MIC (potentiation) by hyperporination: Bc: Bc-RHA-BtPore vs parent
[9] = system: A. baumannii Ab-ARA (wild type, empty cassette); conditions: at least three independent measurements
[10] = system: A. baumannii AbΔ3-ARA-EcPore (efflux-deficient, hyperporinated); conditions: for MIC: AbΔ3-ARA-EcPore, at least three independent measurements
[11] = system: B. cepacia Bc-RHA (wild type, empty cassette)
[12] = system: A. baumannii AbΔ3-ARA (efflux-deficient); conditions: AbΔ3-ARA, at least three independent measurements
[13] = system: A. baumannii Ab-ARA-EcPore (hyperporinated); conditions: for MIC: Ab-ARA-EcPore, at least three independent measurements; for Fold decrease of MIC (potentiation) by hyperporination: Abau: Ab-ARA-EcPore vs parent
[14] = system: P. aeruginosa PAO1-LAC-EcPore (hyperporinated); conditions: for MIC: PAO1-LAC-EcPore, at least three independent measurements; for Fold decrease of MIC (potentiation) by hyperporination: Pae: PAO1-LAC-EcPore vs parent
[15] = Pseudomonas aeruginosa, read-out: MIC
[16] = Burkholderia cepacia, read-out: MIC
[17] = Acinetobacter baumannii, read-out: MIC

Structure (SMILES) | MIC [1, 15] | MIC ([2]; Burkholderia thailandensis) | MIC ([3]; Burkholderia thailandensis) | MIC [4, 15] | MIC [5, 15] | MIC ([6]; Burkholderia thailandensis) | MIC ([7]; Burkholderia thailandensis) | MIC [8, 16] | MIC [9, 17] | MIC [10, 17] | MIC [11, 16] | MIC [12, 17] | MIC [13, 17] | MIC [14, 15] | also measured
Oc1cc(Cl)ccc1Oc1ccc(Cl)cc1Cl [Triclosan] | 8 µg/mL (≈ 27.6 µM) | 120 µg/mL (≈ 414 µM) | 0.06 µg/mL (≈ 0.207 µM) | 1020 µg/mL (≈ 3540 µM) | 32 µg/mL (≈ 111 µM) | 0.12 µg/mL (≈ 0.414 µM) | 30 µg/mL (≈ 104 µM) | 60 µg/mL (≈ 207 µM) | 0.125 µg/mL (≈ 0.432 µM) | 0.001 µg/mL (≈ 0.00345 µM) | > 120 µg/mL | 0.002 µg/mL (≈ 0.00691 µM) | 0.063 µg/mL (≈ 0.218 µM) | 1020 µg/mL (≈ 3540 µM) | –
CC[C@H](C)[C@H](N)C1=N[C@H](C(=O)N[C@@H](CC(C)C)C(=O)N[C@H](CCC(=O)O)C(=O)N[C@H](C(=O)N[C@H]2CCCCNC(=O)[C@H](CC(N)=O)NC(=O)[C@@H](CC(=O)O)NC(=O)[C@H](Cc3cnc[nH]3)NC(=O)[C@@H](Cc3ccccc3)NC(=O)[C@H]([C@@H](C)CC)NC(=O)[C@@H](CCCN)NC2=O)[C@@H](C)CC)CS1 [Bacitracin] ({Ileψ(thiazoline)Cys}-L[dE]IK[dOrn]I[dF]H[dD]N; lactam 4-C) | 64 µg/mL (≈ 45 µM) | > 1020 µg/mL | 8 µg/mL (≈ 5.62 µM) | > 1020 µg/mL | > 1020 µg/mL | 1020 µg/mL (≈ 720 µM) | 1020 µg/mL (≈ 720 µM) | 16 µg/mL (≈ 11.2 µM) | 256 µg/mL (≈ 180 µM) | 64 µg/mL (≈ 45 µM) | > 1020 µg/mL | 512 µg/mL (≈ 360 µM) | 32 µg/mL (≈ 22.5 µM) | 64 µg/mL (≈ 45 µM) | –
Cc1c(N)nc([C@H](CC(N)=O)NC[C@H](N)C(N)=O)nc1C(=O)N[C@H](C(=O)N[C@H](C)[C@@H](O)[C@H](C)C(=O)N[C@H](C(=O)NCCC1=N[C@@H](c2nc(C(=O)NCCCCN=C(N)N)cs2)CS1)[C@@H](C)O)[C@@H](O[C@@H]1O[C@@H](CO)[C@@H](O)[C@H](O)[C@@H]1O[C@H]1O[C@H](CO)[C@@H](O)[C@H](OC(N)=O)[C@@H]1O)c1cnc[nH]1 [Zeocin] | – | – | – | – | – | – | – | – | – | – | – | – | – | – | Fold change of MIC by efflux inactivation plus hyperporination ([1]; PaeΔ3-LAC-Pore vs parent): 256 fold; MIC [1]: 2 µg/mL (≈ 1.4 µM); MIC [2]: 512 µg/mL (≈ 359 µM); Fold change of MIC by efflux inactivation plus hyperporination [3]: 4096 fold; MIC [3]: 0.12 µg/mL (≈ 0.0841 µM); MIC [4]: 512 µg/mL (≈ 359 µM); MIC [5]: 16 µg/mL (≈ 11.2 µM); MIC [6]: 2 µg/mL (≈ 1.4 µM); MIC [7]: 128 µg/mL (≈ 89.7 µM); MIC [8]: 128 µg/mL (≈ 89.7 µM); MIC [9]: 8 µg/mL (≈ 5.6 µM); Fold change of MIC by efflux inactivation plus hyperporination ([10]; AbΔ3-ARA-EcPore vs Ab-ARA): 64 fold; MIC [10]: 0.125 µg/mL (≈ 0.0876 µM); MIC [11]: >1024 µg/mL; MIC [12]: 1 µg/mL (≈ 0.701 µM); MIC [13]: 0.5 µg/mL (≈ 0.35 µM); MIC [14]: 32 to 64 µg/mL
Cc1onc(-c2ccccc2Cl)c1C(=O)N[C@@H]1C(=O)N2[C@@H]1SC(C)(C)[C@@H]2C(=O)O [Cloxacillin] | 8 µg/mL (≈ 18.4 µM) | 256 µg/mL (≈ 587 µM) | 0.5 µg/mL (≈ 1.15 µM) | – | 128 µg/mL (≈ 294 µM) | 32 µg/mL (≈ 73.4 µM) | – | 4 µg/mL (≈ 9.18 µM) | 1020 µg/mL (≈ 2350 µM) | 16 µg/mL (≈ 36.7 µM) | 256 µg/mL (≈ 587 µM) | 128 µg/mL (≈ 294 µM) | 128 µg/mL (≈ 294 µM) | 512 µg/mL (≈ 1170 µM) | MIC [7]: 128 to 256 µg/mL
CC[C@H]1OC(=O)[C@H](C)[C@@H](O[C@H]2C[C@@](C)(OC)[C@@H](O)[C@H](C)O2)[C@H](C)[C@@H](O[C@@H]2O[C@H](C)C[C@H](N(C)C)[C@H]2O)[C@](C)(O)C[C@@H](C)CN(C)[C@H](C)[C@@H](O)[C@]1(C)O [Azithromycin] | 0.063 µg/mL (≈ 0.0841 µM) | 128 µg/mL (≈ 171 µM) | 0.032 µg/mL (≈ 0.0427 µM) | – | 4 µg/mL (≈ 5.34 µM) | 1 µg/mL (≈ 1.34 µM) | 64 µg/mL (≈ 85.4 µM) | 1 to 2 µg/mL (≈ 1.34 to 2.67 µM) | 0.31 µg/mL (≈ 0.414 µM) | 0.08 µg/mL (≈ 0.107 µM) | 64 µg/mL (≈ 85.4 µM) | 0.31 µg/mL (≈ 0.414 µM) | 0.04 µg/mL (≈ 0.0534 µM) | 4 µg/mL (≈ 5.34 µM) | –
C[C@@H](O)[C@H]1C(=O)N2C(C(=O)O)=C(S[C@@H]3CN[C@H](C(=O)N(C)C)C3)[C@H](C)[C@H]12 [Meropenem] | 0.03 µg/mL (≈ 0.0782 µM) | 1 µg/mL (≈ 2.61 µM) | 0.03 µg/mL (≈ 0.0782 µM) | 0.5 µg/mL (≈ 1.3 µM) | 0.125 µg/mL (≈ 0.326 µM) | 0.25 µg/mL (≈ 0.652 µM) | 1 µg/mL (≈ 2.61 µM) | 0.125 µg/mL (≈ 0.326 µM) | 0.25 µg/mL (≈ 0.652 µM) | 0.063 µg/mL (≈ 0.164 µM) | > 4 µg/mL | 0.125 µg/mL (≈ 0.326 µM) | 0.063 µg/mL (≈ 0.164 µM) | 0.25 µg/mL (≈ 0.652 µM) | Fold decrease of MIC (potentiation) by hyperporination [8]: > 32 fold; Fold decrease of MIC (potentiation) by hyperporination [13]: 2-4 fold; Fold decrease of MIC (potentiation) by hyperporination [14]: 2-4 fold
CO[C@@H]1[C@@H](OC(N)=O)[C@@H](O)[C@H](Oc2ccc3c(O)c(NC(=O)c4ccc(O)c(CC=C(C)C)c4)c(=O)oc3c2C)OC1(C)C [Novobiocin] | 4 µg/mL (≈ 6.53 µM) | 8 µg/mL (≈ 13.1 µM) | 0.008 µg/mL (≈ 0.0131 µM) | – | 32 µg/mL (≈ 52.2 µM) | 0.25 µg/mL (≈ 0.408 µM) | 4 µg/mL (≈ 6.53 µM) | 0.125 µg/mL (≈ 0.204 µM) | 3.1 µg/mL (≈ 5.06 µM) | 0.025 µg/mL (≈ 0.0408 µM) | 8 µg/mL (≈ 13.1 µM) | 0.025 µg/mL (≈ 0.0408 µM) | 1.56 µg/mL (≈ 2.55 µM) | 64 µg/mL (≈ 104 µM) | MIC [4]: 512 µg/mL (≈ 836 µM); Fold decrease of MIC (potentiation) by hyperporination [7]: 2 fold; Fold decrease of MIC (potentiation) by hyperporination [8]: 16-32 fold; Fold decrease of MIC (potentiation) by hyperporination [13]: 2 fold; Fold decrease of MIC (potentiation) by hyperporination [14]: 16-32 fold
